This note sets out measurements from ChEMBL document CHEMBL1140598, “A review of anti-infective and anti-inflammatory chalcones” (Eur J Med Chem, 2007).

Broadly, the MIC is the smallest concentration in the dilution series that meets the test's criterion for growth inhibition. Higher therefore signals a less susceptible organism.

The experiment deals with Mycobacterium tuberculosis variant bovis. The experiment can be described thus: Antibacterial activity against Mycobacterium bovis. In kind it is functional.

Turning to `C=CC(C)(C)c1cc(/C=C/C(=O)c2ccc(O)cc2)c(OC)cc1O` [LICOAGROCHACONE A], the MIC is ≤ 20 µg/mL.
